Key:
clot formation = assay: Clotting times (PT, PTT) of anticoagulated whole blood; format: biochemical
Protocol: In this experiment whole blood (an aliquot of which clotted within 10 minutes without anticoagulant) was modified by adding a number of different anticoagulant compositions. Sodium citrate was used as an anticoagulant at 0.65%, 0.75% and 0.9% by weight. These are all higher citrate levels than the usual 0.4% by weight. Amino acid citrates (lysine or arginine) were used at 0.65%, 0.75% and 0.9% by weight based on the weight of the citric acid. The amino acid counterion was used in sufficient quantity to adjust the pH as explained above.

plasma proteins [1] = assay: Protein resistance to 56° C. treatment; details: Na citrate 0.4%, lysine citrate 2.0%
From the text: (§1) […]. In many cases heat treatments have been used to reduce or eliminated infectious agents from blood products. A problem with such an approach has been heat induced changes in the antigenicity of certain blood components. […]. A continuation of this experiment was set up to check also long term room temperature stability. It is generally believed that resistance to heat is an indicator of room temperature stability. That is the justification for estimating long term stability of products by using “accelerated” stability tests based on storage at an elevated temperature. In the presented experiment it is important to note that different plasma sample were used for the two different anticoagulants because a single sample was not large enough to provide sufficient volume for all of the tests over the life of the extended experiment.

plasma proteins [2] = assay: Protein resistance to room temperature aging; details: Na citrate 0.4%, lysine citrate 2%
From the text: as §1
It was anticipated that protection against damage due to elevated temperature would also provide greater stability at room temperature. It will be appreciated that the need to rapidly freeze plasma to ensure stability and the need to freeze or refrigerate plasma for transport greatly complicates the use of plasma under situations of war or emergency or in developing countries where refrigeration may not be readily available. […] […]. […] […]. Although great effort is taken to ensure sterility of the plasma, any blood product procured by means of venipuncture may become contaminated by skin bacteria. […] […]. Those proteins that do lose activity decrease only slightly as compared to much more dramatic decreases in sodium citrate storage.

plasma proteins [3] = assay: Protein resistance to glass beads; details: Na citrate 0.4%, lysine citrate 2.0%
From the text: The above experiment was repeated using glass beads as a denaturing agent. Generally, contact of blood plasma with glass surfaces results in activation or denaturation. […].

plasma proteins [4] = assay: Protein resistance to vortexing; details: for Alk. Phos / LDH / SGOT / SGPT / fIX / fV / fVIII / fibrinogen: plasma, Na citrate 0.4%, lysine citrate 2.0%; for Alkaline phosphatase, % of its initial value / LDH, % of initial value / SGOT, % of initial value / SGPT, % of initial value / factor IX, % of initial value / factor V, % of initial value / factor VIII, % of initial value / fibrinogen, % of initial value: sodium citrate 0.4%, lysine citrate 2%
Protocol: As the basic anticoagulant experiments were carried out, additional advantages to the new anticoagulation system became apparent. The inventor has long believed that the effects of citrate on proteins, and in particular plasma proteins, goes beyond mere chelation of calcium. As mentioned above, citrate complexes with or otherwise potentiates the precipitation of plasma proteins. […] Soluble protein can be denatured by vigorous mixing and the resulting exposure to the air-water interfaces present in foam. […]. Two ten ml tubes of each plasma were prepared and held at room temperature for thirty minutes. A “pretreatment” sample (Pre) was removed from each tube and set aside. Then the tubes were subjected to vigorous mixing using a vortex (rotary) mixer for 30 min.
[…]. […] […].

[5] = Post 56° C. for five minutes, plasma
[6] = Post 30 min rocking with glass beads
[7] = after vortexing, 2% sodium citrate (similar experiment, data not shown)

## NCCCC[C@H](N)C(=O)O.O=C(O)CC(O)(CC(=O)O)C(=O)O [Lysine Citrate, lysine citrate]
Clot formation; anticoagulant 0.65 wgt %
  PT (4 hrs at RT): 14.1 s
  PTT (4 hrs at RT): 33.8 s
Clot formation; anticoagulant 0.75 wgt %
  PT (4 hrs at RT): 16.6 s
  PTT (4 hrs at RT): 33.2 s
Clot formation; anticoagulant 0.90 wgt %
  PT (4 hrs at RT): 36.5 s
  PTT (4 hrs at RT): 44.4 s
Plasma proteins [1]; [5]
  Alk. Phos: 16 IU/.L
  LDH: 91 IU/L
  SGOT: 7 IU/L
  SGPT: 17 IU/L
  fIX: 79%
  fV: 69%
  fVIII: 88%
  fibrinogen: 147 mg/dL
Plasma proteins [1]; before heating, fresh plasma
  Alk. Phos: 23 IU/.L
  LDH: 97 IU/L
  SGOT: 10 IU/L
  SGPT: 20 IU/L
  fIX: 99%
  fV: 97%
  fVIII: 102%
  fibrinogen: 198 mg/dL
Plasma proteins [2]; 0 days at room temperature
  Alk. Phos: 23 IU/.L
  LDH: 97 IU/L
  SGOT: 10 IU/L
  SGPT: 20 IU/L
  fIX: 99%
  fV: 97%
  fVIII: 102%
  fibrinogen: 198 mg/dL
Plasma proteins [2]; 7 days at room temperature
  Alk. Phos: 23 IU/.L
  LDH: 97 IU/L
  SGOT: 10 IU/L
  SGPT: 20 IU/L
  fIX: 100%
  fV: 95%
  fVIII: 100%
  fibrinogen: 198 mg/dL
Plasma proteins [2]; 14 days at room temperature
  Alk. Phos: 22 IU/.L
  LDH: 98 IU/L
  SGOT: 11 IU/L
  SGPT: 20 IU/L
  fIX: 95%
  fV: 92%
  fVIII: 97%
  fibrinogen: 196 mg/dL
Plasma proteins [2]; 21 days at room temperature
  Alk. Phos: 23 IU/.L
  LDH: 98 IU/L
  SGOT: 10 IU/L
  SGPT: 18 IU/L
  fIX: 89%
  fV: 88%
  fVIII: 96%
  fibrinogen: 196 mg/dL
Plasma proteins [3]; [6]
  Alk. Phos: 24 IU/.L
  LDH: 96 IU/L
  SGOT: 12 IU/L
  SGPT: 24 IU/L
  fIX: 84%
  fV: 67%
  fVIII: 62%
  fibrinogen: 202 mg/dL
Plasma proteins [3]; Pre glass beads
  Alk. Phos: 25 IU/.L
  LDH: 99 IU/L
  SGOT: 12 IU/L
  SGPT: 26 IU/L
  fIX: 98%
  fV: 95%
  fVIII: 97%
  fibrinogen: 247 mg/dL
Plasma proteins [4]; Post 30 min vortexing
  Alk. Phos: 22 IU/.L
  LDH: 80 IU/L
  SGOT: 11 IU/L
  SGPT: 24 IU/L
  fIX: 76%
  fV: 55%
  fVIII: 57%
  fibrinogen: 198 mg/dL
Plasma proteins [4]; Pre vortexing
  Alk. Phos: 25 IU/.L
  LDH: 99 IU/L
  SGOT: 12 IU/L
  SGPT: 26 IU/L
  fIX: 98%
  fV: 95%
  fVIII: 97%
  fibrinogen: 247 mg/dL
Plasma proteins [4]; after vortexing
  Alkaline phosphatase, % of its initial value: 88%
  LDH, % of initial value: 80%
  SGOT, % of initial value: 91.6%
  SGPT, % of initial value: 92%
  factor IX, % of initial value: 77.6%
  factor V, % of initial value: 58%
  factor VIII, % of initial value: 59%
  fibrinogen, % of initial value: 80%

## O=C([O-])CC(O)(CC(=O)[O-])C(=O)[O-].[Na+].[Na+].[Na+] [Na Citrate, sodium citrate, reference compound]
Clot formation; anticoagulant 0.65 wgt %
  PT (4 hrs at RT): 13.1 s
  PTT (4 hrs at RT): 28.7 s
Clot formation; anticoagulant 0.75 wgt %
  PT (4 hrs at RT): 14.1 s
  PTT (4 hrs at RT): 31.5 s
Clot formation; anticoagulant 0.90 wgt %
  PT (4 hrs at RT): 21.2 s
  PTT (4 hrs at RT): 35.0 s
Plasma proteins [1]; [5]
  Alk. Phos: 23 IU/.L
  LDH: 84 IU/L
  SGOT: 15 IU/L
  SGPT: 21 IU/L
  fIX: 67%
  fV: 45%
  fVIII: 56%
  fibrinogen: 15 mg/dL
Plasma proteins [1]; before heating, fresh plasma
  Alk. Phos: 30 IU/.L
  LDH: 110 IU/L
  SGOT: 18 IU/L
  SGPT: 32 IU/L
  fIX: 104%
  fV: 98%
  fVIII: 109%
  fibrinogen: 206 mg/dL
Plasma proteins [2]; 0 days at room temperature
  Alk. Phos: 30 IU/.L
  LDH: 110 IU/L
  SGOT: 18 IU/L
  SGPT: 32 IU/L
  fIX: 104%
  fV: 98%
  fVIII: 109%
  fibrinogen: 206 mg/dL
Plasma proteins [2]; 7 days at room temperature
  Alk. Phos: 29 IU/.L
  LDH: 111 IU/L
  SGOT: 18 IU/L
  SGPT: 30 IU/L
  fIX: 107%
  fV: 102%
  fVIII: 100%
  fibrinogen: 181 mg/dL
Plasma proteins [2]; 14 days at room temperature
  Alk. Phos: 31 IU/.L
  LDH: 108 IU/L
  SGOT: 15 IU/L
  SGPT: 26 IU/L
  fIX: 93%
  fV: 102%
  fVIII: 92%
  fibrinogen: 173 mg/dL
Plasma proteins [2]; 21 days at room temperature
  Alk. Phos: 28 IU/.L
  LDH: 103 IU/L
  SGOT: 12 IU/L
  SGPT: 20 IU/L
  fIX: 56%
  fV: 44%
  fVIII: 78%
  fibrinogen: 167 mg/dL
Plasma proteins [3]; [6]
  Alk. Phos: 16 IU/.L
  LDH: 24 IU/L
  SGOT: 1 IU/L
  SGPT: 1 IU/L
  fIX: 14%
  fV: 15%
  fVIII: 29%
  fibrinogen: 88 mg/dL
Plasma proteins [3]; Pre glass beads
  Alk. Phos: 27 IU/.L
  LDH: 100 IU/L
  SGOT: 15 IU/L
  SGPT: 29 IU/L
  fIX: 103%
  fV: 98%
  fVIII: 102%
  fibrinogen: 258 mg/dL
Plasma proteins [4]; Post 30 min vortexing
  Alk. Phos: 15 IU/.L
  LDH: 33 IU/L
  SGOT: 1 IU/L
  SGPT: 1 IU/L
  fIX: 44%
  fV: 21%
  fVIII: 32%
  fibrinogen: 106 mg/dL
Plasma proteins [4]; Pre vortexing
  Alk. Phos: 27 IU/.L
  LDH: 100 IU/L
  SGOT: 15 IU/L
  SGPT: 29 IU/L
  fIX: 103%
  fV: 98%
  fVIII: 102%
  fibrinogen: 258 mg/dL
Plasma proteins [4]; [7]
  LDH, % of the initial value: 48%
  SGOT, % of the initial value: 33%
  SGPT, % of the initial value: 32%
  alkaline phosphatase, % of the initial value: 80%
  factor IX, % of the initial value: 62%
  factor V, % of the initial value: 52%
  factor Viii, % of the initial value: 57%
  fibrinogen, % of the initial value: 69%
Plasma proteins [4]; after vortexing
  Alkaline phosphatase, % of its initial value: 55%
  LDH, % of initial value: 33%
  SGOT, % of initial value: 6.6%
  SGPT, % of initial value: 3.4%
  factor IX, % of initial value: 43%
  factor V, % of initial value: 21%
  factor VIII, % of initial value: 31%
  fibrinogen, % of initial value: 4%

— patent publication US20090123907A1 (priority 2004, published 2009)
